What was measured:
LoVo cells = test: LoVo Cell Growth Inhibition Test (MTT Assay); assay type: cell-based; conditions: Homo sapiens, 72 h incubation
Description: LoVo Cell Growth Inhibition Test (MTT Assay)
1. Cell strains: LoVo (human intestinal cancer cell strains);
(§1) 1. A plate (10 cm) of cells in logarithmic growth phase normally cultured was collected;
2. The culture solution was sucked out. The plate was washed with 5 ml of PBS 1-2 times;
3. PBS was sucked out. 2 ml of 0.25% pancreatin was added to infiltrate the cells for 1 min;
4. The pancreatin was sucked out. The culture plate was placed in an incubator. Digestion was carried out for about 4 min at 37° C.;
5. 4 ml of complete culture solution was added in the culture plate to stop the digestion. The cells were carefully scoured with micropipette (1 ml) to give a uniform cell suspension. The suspension was implanted into a 96-well cell culture plate by 3000-4000 cells/100 μl per well. The culture plate was incubated overnight under 5% CO2 at 37° C. In day 2, 100 μl of culture solution comprising a compound was added into each well, and further incubated for 72 h under 5% CO2 at 37° C.
(§2) 6. The culture solution was sucked out;
7. 100 μl of serum-free culture solution containing 0.5 mg/ml MTT was added in each well, and incubated for 4 h;
(§3) 8. The culture solution was carefully sucked out;
9. 100 μl of DMSO was added in each well and vibrated to dissolve;
(§4) 10. OD values were determined at 490 nM.
1. Calculation of Relative Inhibition Ratio The inhibition ratio of a compound on cell growth=(PC−n)/(PC−NC)×100%
(§5) IC50: Concentration of a compound where inhibition ratio was 50%. IC50 values were fitted with Origin7.5.

NCI-N87 cells = test: NCI-N87 Cell Growth Inhibition Test (MTT Assay); assay type: cell-based; conditions: Homo sapiens, 72 h incubation
Description: NCI-N87 Cell Growth Inhibition Test (MTT Assay)
1. Cell strains: NCI-N87 (human gastric carcinoma cell strains);
as §1
2. The culture solution was sucked out. The plate was washed wtih 5 ml of PBS 1-2 times;
3. PBS was sucked out. 1.5 ml of 0.25% pancreatin was added to infiltrate the cells for 1 min;
4. The pancreatin was sucked out. The culture plate was placed in an incubator. Digestion was carried out for about 12 min at 37° C.;
5. 4.5 ml of complete culture solution was added to the culture plate to stop the digestion. The cells were carefully scoured with micropipette (1 ml) to give a uniform cell suspension. The suspension was implanted into a 96-well cell culture disc by 17000 cells/100 μl per well. The culture plate was incubated overnight under 5% CO2 at 37° C. In day 2, 100 μl of culture solution comprising a compound was added in each well, and further incubated for 72 h under 5% CO2 at 37° C.
as §2
7. 100 μl of serum-free culture solution containing 0.5 mg/ml MTT was added in each well, and incubated for 3 h;
as §3
9. 100 μl of DMSO was added in each welland vibrated to dissolve;
as §4
1. Calculation of Rrelative Inhibition Ratio The inhibition ratio of a compound on cell growth=(PC−n)/(PC−NC)×100%
as §5

Row | SMILES | IC50 (LoVo cells) | IC50 (NCI-N87 cells)
1 | CN(C)C/C=C/C(=O)Nc1cc2c(Nc3ccc(OCc4ccccc4F)c(Cl)c3)c(C#N)cnc2cc1OC1CCOC1 (stereo not shown) [Example 8, (E)-N-(4-(4-(2-FLUOROBENZYLOXY)-3-CHLOROPHENYLAMINO)-3-CYANO-7-(TETRAHYDROFURAN-3-YL-OXY)QUINOLIN-6-YL)-4-(DIMETHYLAMINO)-BUT-2-ENAMIDE] | 1700 nM | 5.6 nM
2 | CN(C)C/C=C/C(=O)Nc1cc2c(Nc3ccc(OCc4ccccc4)c(Cl)c3)c(C#N)cnc2cc1OC1CCOC1 (stereo not shown) [Example 12, (E)-N-(4-(4-(BENZYLOXY)-3-CHLOROPHENYLAMINO)-3-CYANO-7-(TETRAHYDROFURAN-3-YL-OXY)QUINOLIN-6-YL)-4-(DIMETHYLAMINO)-BUT-2-ENAMIDE] | 2000 nM | 6.1 nM
3 | CN(C)C/C=C/C(=O)Nc1cc2c(Nc3ccc(OCc4cccc(Cl)c4)c(Cl)c3)c(C#N)cnc2cc1OC1CCOC1 (stereo not shown) [Example 11, (E)-N-(4-(4-(3-CHLOROBENZYLOXY)-3-CHLOROPHENYLAMINO)-3-CYANO-7-(TETRAHYDROFURAN-3-YL-OXY)QUINOLIN-6-YL)-4-(DIMETHYLAMINO)-BUT-2-ENAMIDE] | 1600 nM | 11 nM

Now from value to molecule, other results behind:

Row | IC50 (LoVo cells) | SMILES | IC50 (NCI-N87 cells)
4 | 2000 nM | CN(C)C/C=C/C(=O)Nc1cc2c(Nc3ccc(OCc4ccccc4C#N)c(Cl)c3)c(C#N)cnc2cc1OC1CCOC1 (stereo not shown) [Example 13, (E)-N-(4-(4-(2-CYANOBENZYLOXY)-3-CHLOROPHENYLAMINO)-3-CYANO-7-(TETRAHYDROFURAN-3-YL-OXY)QUINOLIN-6-YL)-4-(DIMETHYLAMINO)-BUT-2-ENAMIDE] | 4.4 nM
5 | 2200 nM | CN(C)C/C=C/C(=O)Nc1cc2c(Nc3ccc(OCc4cccc(C#N)c4)c(Cl)c3)c(C#N)cnc2cc1OC1CCOC1 (stereo not shown) [Example 15, (E)-N-(4-(4-(3-CYANOBENZYLOXY)-3-CHLOROPHENYLAMINO)-3-CYANO-7-(TETRAHYDROFURAN-3-YL-OXY)QUINOLIN-6-YL)-4-(DIMETHYLAMINO)-BUT-2-ENAMIDE] | 7.1 nM

From patent publication US9187458B2, “Cyanoquinoline derivatives” (Tianjin Hemay Bio-Tech Co., LTD., priority 2010, dated 2015)
